Target: T1, bacteriophage T4 DNA polymerase (Enterobacteria phage T4, UniProt P04415)
T1 construct: made in house
T1 sequence (P04415 1-898): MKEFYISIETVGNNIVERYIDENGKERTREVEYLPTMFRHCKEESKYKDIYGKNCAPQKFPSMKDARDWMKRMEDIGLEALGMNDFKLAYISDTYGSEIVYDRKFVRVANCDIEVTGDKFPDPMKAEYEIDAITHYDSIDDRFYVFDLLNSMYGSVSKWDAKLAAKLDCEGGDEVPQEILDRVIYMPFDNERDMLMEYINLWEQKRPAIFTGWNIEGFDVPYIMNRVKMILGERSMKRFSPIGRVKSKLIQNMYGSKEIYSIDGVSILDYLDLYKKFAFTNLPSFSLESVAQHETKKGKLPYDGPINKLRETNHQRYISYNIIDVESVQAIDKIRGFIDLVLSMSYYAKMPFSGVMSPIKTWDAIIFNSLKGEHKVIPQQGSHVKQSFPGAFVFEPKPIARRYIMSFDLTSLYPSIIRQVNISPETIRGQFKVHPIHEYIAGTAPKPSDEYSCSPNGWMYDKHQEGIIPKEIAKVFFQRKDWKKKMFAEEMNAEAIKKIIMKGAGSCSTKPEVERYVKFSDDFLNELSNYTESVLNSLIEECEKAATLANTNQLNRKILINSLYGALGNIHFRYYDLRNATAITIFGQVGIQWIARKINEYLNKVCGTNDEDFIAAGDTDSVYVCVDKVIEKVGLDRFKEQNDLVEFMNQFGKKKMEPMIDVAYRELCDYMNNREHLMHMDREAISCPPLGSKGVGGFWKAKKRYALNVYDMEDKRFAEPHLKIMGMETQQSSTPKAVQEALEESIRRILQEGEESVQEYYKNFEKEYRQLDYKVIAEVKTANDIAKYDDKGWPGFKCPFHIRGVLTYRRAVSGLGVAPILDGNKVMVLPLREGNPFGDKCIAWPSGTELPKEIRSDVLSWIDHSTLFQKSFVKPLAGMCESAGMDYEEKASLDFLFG
Assay: Counter-screen against bacteriophage T4 DNA polymerase
Format: biochemical
Details: for % inhibition T4 10' 2.5 / % inhibition T4 10' 5 / % inhibition T4 10' 10 / % inhibition T4 10' 20 / % inhibition T4 10' 40 / % inhibition T4 10' 80: read at 10'; for % inhibition T4 10' 2.5 / % inhibition T4 70' 2.5 / % inhibition T4 130' 2.5 / % inhibition T4 40' 2.5 / % inhibition T4 90' 2.5 / % inhibition T4 180' 2.5: concentration 2.5; for % inhibition T4 10' 5 / % inhibition T4 70' 5 / % inhibition T4 130' 5 / % inhibition T4 40' 5 / % inhibition T4 90' 5 / % inhibition T4 180' 5: concentration 5; for % inhibition T4 10' 10 / % inhibition T4 70' 10 / % inhibition T4 130' 10 / % inhibition T4 40' 10 / % inhibition T4 90' 10 / % inhibition T4 180' 10: concentration 10; for % inhibition T4 10' 20 / % inhibition T4 70' 20 / % inhibition T4 130' 20 / % inhibition T4 40' 20 / % inhibition T4 90' 20 / % inhibition T4 180' 20: concentration 20; for % inhibition T4 10' 40 / % inhibition T4 70' 40 / % inhibition T4 130' 40 / % inhibition T4 40' 40 / % inhibition T4 90' 40 / % inhibition T4 180' 40: concentration 40; for % inhibition T4 10' 80 / % inhibition T4 70' 80 / % inhibition T4 130' 80 / % inhibition T4 40' 80 / % inhibition T4 90' 80 / % inhibition T4 180' 80: concentration 80; for % inhibition T4 70' 2.5 / % inhibition T4 70' 5 / % inhibition T4 70' 10 / % inhibition T4 70' 20 / % inhibition T4 70' 40 / % inhibition T4 70' 80: read at 70'; for % inhibition T4 130' 2.5 / % inhibition T4 130' 5 / % inhibition T4 130' 10 / % inhibition T4 130' 20 / % inhibition T4 130' 40 / % inhibition T4 130' 80: read at 130'; for % inhibition T4 40' 2.5 / % inhibition T4 40' 5 / % inhibition T4 40' 10 / % inhibition T4 40' 20 / % inhibition T4 40' 40 / % inhibition T4 40' 80: read at 40'; for % inhibition T4 90' 2.5 / % inhibition T4 90' 5 / % inhibition T4 90' 10 / % inhibition T4 90' 20 / % inhibition T4 90' 40 / % inhibition T4 90' 80: read at 90'; for % inhibition T4 180' 2.5 / % inhibition T4 180' 5 / % inhibition T4 180' 10 / % inhibition T4 180' 20 / % inhibition T4 180' 40 / % inhibition T4 180' 80: read at 180'
Method in brief: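 IC50 values come from dose-response testing of each compound against T4 DNA polymerase. This B-family polymerase was purified in-house and used as the counter-screen.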

Cn1nc(-c2nc(-c3ccccc3)no2)c2c1CCN(C(=O)Cc1cccs1)C2 [Molecule 58, O=C(N1CCc2c(C1)c(nn2C)c1onc(n1)c1ccccc1)Cc1cccs1]
% inhibition T4 10' 2.5 (DRC-1): 2% | % inhibition T4 10' 5 (DRC-1): 6% | % inhibition T4 10' 10 (DRC-1): 20% | % inhibition T4 10' 20 (DRC-1): 24% | % inhibition T4 10' 40 (DRC-1): 35% | % inhibition T4 10' 80 (DRC-1): 33% | % inhibition T4 70' 2.5 (DRC-1): -0.863% | % inhibition T4 70' 5 (DRC-1): 0.684% | % inhibition T4 70' 10 (DRC-1): 13% | % inhibition T4 70' 20 (DRC-1): 17% | % inhibition T4 70' 40 (DRC-1): 26% | % inhibition T4 70' 80 (DRC-1): 37% | % inhibition T4 130' 2.5 (DRC-1): -2.41% | % inhibition T4 130' 5 (DRC-1): -0.486% | % inhibition T4 130' 10 (DRC-1): 9% | % inhibition T4 130' 20 (DRC-1): 14% | % inhibition T4 130' 40 (DRC-1): 24% | % inhibition T4 130' 80 (DRC-1): 33% | % inhibition T4 10' 2.5 (DRC-2): 2.64% | % inhibition T4 10' 5 (DRC-2): 8% | % inhibition T4 10' 10 (DRC-2): 17% | % inhibition T4 10' 20 (DRC-2): 20% | % inhibition T4 10' 40 (DRC-2): 23% | % inhibition T4 10' 80 (DRC-2): 20% | % inhibition T4 40' 2.5 (DRC-2): 2.18% | % inhibition T4 40' 5 (DRC-2): 6.41% | % inhibition T4 40' 10 (DRC-2): 17% | % inhibition T4 40' 20 (DRC-2): 22% | % inhibition T4 40' 40 (DRC-2): 27% | % inhibition T4 40' 80 (DRC-2): 25% | % inhibition T4 90' 2.5 (DRC-2): 2.76% | % inhibition T4 90' 5 (DRC-2): 7% | % inhibition T4 90' 10 (DRC-2): 17% | % inhibition T4 90' 20 (DRC-2): 21% | % inhibition T4 90' 40 (DRC-2): 24% | % inhibition T4 90' 80 (DRC-2): 22% | % inhibition T4 180' 2.5 (DRC-2): -1.52% | % inhibition T4 180' 5 (DRC-2): 1.9% | % inhibition T4 180' 10 (DRC-2): 13% | % inhibition T4 180' 20 (DRC-2): 15% | % inhibition T4 180' 40 (DRC-2): 20% | % inhibition T4 180' 80 (DRC-2): 20%

O=C1CSC2=NC3=C(CCc4ccccc43)C(c3cccs3)N12 (stereo not drawn) [Molecule 59, O=C1CSC2=NC3=C(C(N12)c1cccs1)CCc1c3cccc1]
% inhibition T4 10' 2.5 (DRC-1): 10.0127% | % inhibition T4 10' 5 (DRC-1): 9.284% | % inhibition T4 10' 10 (DRC-1): 14.9012% | % inhibition T4 10' 20 (DRC-1): 17.5613% | % inhibition T4 10' 40 (DRC-1): 23.9437% | % inhibition T4 10' 80 (DRC-1): 22.8817% | % inhibition T4 70' 2.5 (DRC-1): 9.951% | % inhibition T4 70' 5 (DRC-1): 10.6029% | % inhibition T4 70' 10 (DRC-1): 14.1389% | % inhibition T4 70' 20 (DRC-1): 13.8668% | % inhibition T4 70' 40 (DRC-1): 19.0347% | % inhibition T4 70' 80 (DRC-1): 18.0959% | % inhibition T4 130' 2.5 (DRC-1): 7.352% | % inhibition T4 130' 5 (DRC-1): 7.713% | % inhibition T4 130' 10 (DRC-1): 10.7499% | % inhibition T4 130' 20 (DRC-1): 9.8688% | % inhibition T4 130' 40 (DRC-1): 15.3496% | % inhibition T4 130' 80 (DRC-1): 16.7896% | % inhibition T4 10' 2.5 (DRC-2): 31% | % inhibition T4 10' 5 (DRC-2): 18% | % inhibition T4 10' 10 (DRC-2): 6.37% | % inhibition T4 10' 20 (DRC-2): 8% | % inhibition T4 10' 40 (DRC-2): 6% | % inhibition T4 10' 80 (DRC-2): 11% | % inhibition T4 40' 2.5 (DRC-2): 31% | % inhibition T4 40' 5 (DRC-2): 18% | % inhibition T4 40' 10 (DRC-2): 6.37% | % inhibition T4 40' 20 (DRC-2): 8% | % inhibition T4 40' 40 (DRC-2): 6% | % inhibition T4 40' 80 (DRC-2): 11% | % inhibition T4 90' 2.5 (DRC-2): 30% | % inhibition T4 90' 5 (DRC-2): 18% | % inhibition T4 90' 10 (DRC-2): 8% | % inhibition T4 90' 20 (DRC-2): 8% | % inhibition T4 90' 40 (DRC-2): 6.37% | % inhibition T4 90' 80 (DRC-2): 11% | % inhibition T4 180' 2.5 (DRC-2): 24% | % inhibition T4 180' 5 (DRC-2): 15% | % inhibition T4 180' 10 (DRC-2): 5% | % inhibition T4 180' 20 (DRC-2): 4% | % inhibition T4 180' 40 (DRC-2): 5.53% | % inhibition T4 180' 80 (DRC-2): 9%

Cc1cc2[nH]c(C(=O)Nc3ccc(F)cc3)c(CN3CCOCC3)c2s1 [Molecule 60, Fc1ccc(cc1)NC(=O)c1[nH]c2c(c1CN1CCOCC1)sc(c2)C]
% inhibition T4 10' 2.5 (DRC-1): 1.711% | % inhibition T4 10' 5 (DRC-1): 9.215% | % inhibition T4 10' 10 (DRC-1): 21.452% | % inhibition T4 10' 20 (DRC-1): 34.4714% | % inhibition T4 10' 40 (DRC-1): 38.1099% | % inhibition T4 10' 80 (DRC-1): 40.6852% | % inhibition T4 70' 2.5 (DRC-1): 0.0854% | % inhibition T4 70' 5 (DRC-1): 3.336% | % inhibition T4 70' 10 (DRC-1): 13.8719% | % inhibition T4 70' 20 (DRC-1): 20.2889% | % inhibition T4 70' 40 (DRC-1): 27.4388% | % inhibition T4 70' 80 (DRC-1): 27.0179% | % inhibition T4 130' 2.5 (DRC-1): -1.799% | % inhibition T4 130' 5 (DRC-1): 0.5371% | % inhibition T4 130' 10 (DRC-1): 9.245% | % inhibition T4 130' 20 (DRC-1): 15.4607% | % inhibition T4 130' 40 (DRC-1): 21.1797% | % inhibition T4 130' 80 (DRC-1): 22.3923% | % inhibition T4 10' 2.5 (DRC-2): 5.28% | % inhibition T4 10' 5 (DRC-2): 2.77% | % inhibition T4 10' 10 (DRC-2): 13% | % inhibition T4 10' 20 (DRC-2): 21% | % inhibition T4 10' 40 (DRC-2): 25% | % inhibition T4 10' 80 (DRC-2): 25% | % inhibition T4 40' 2.5 (DRC-2): 3.64% | % inhibition T4 40' 5 (DRC-2): 2.11% | % inhibition T4 40' 10 (DRC-2): 12% | % inhibition T4 40' 20 (DRC-2): 21% | % inhibition T4 40' 40 (DRC-2): 26% | % inhibition T4 40' 80 (DRC-2): 27% | % inhibition T4 90' 2.5 (DRC-2): 4% | % inhibition T4 90' 5 (DRC-2): 2.34% | % inhibition T4 90' 10 (DRC-2): 12% | % inhibition T4 90' 20 (DRC-2): 19% | % inhibition T4 90' 40 (DRC-2): 24% | % inhibition T4 90' 80 (DRC-2): 25% | % inhibition T4 180' 2.5 (DRC-2): -1.07% | % inhibition T4 180' 5 (DRC-2): -2.8% | % inhibition T4 180' 10 (DRC-2): 6% | % inhibition T4 180' 20 (DRC-2): 13% | % inhibition T4 180' 40 (DRC-2): 20% | % inhibition T4 180' 80 (DRC-2): 23%
